# According to patent publication US20220313620A1, “COMPOSITION FOR PREVENTING AND TREATING TAUOPATHIES” (SERVICIO ANDALUZ DE SALUD, priority 2019, published 2022):
# How the values were obtained:
# [1] = Plasma glucose levels after acute oral gavage; assay type: in vivo; details: oral 500 mg/kg, adult male Wistar rats, FIG. 3C
# Method: Experimental procedures with animals were carried out in strict accordance with the recommendations in the European Communities directive 2010/63/EU and Spanish legislation (Real Decreto 53/2013, BOE 34/11370-11421, 2013) regulating the care and use of laboratory animals. The protocol was approved by the Ethics Committee for Animal Experiments of the University of Malaga. All studies involving animals were reported in accordance with the ARRIVE guidelines for reporting experiments involving animals (Kilkenny, C., Browne, W. J., Cuthill, I. C., Emerson, M. & Altman, D. G. Improving Bioscience Research Reporting: The ARRIVE Guidelines for Reporting Animal Research. PLoS Biol 8, e1000412, https://doi.org/10.1371/journal.pbio.1000412 (2010). All efforts were made to minimize animal suffering and to reduce the number of animals used. The experiments were performed on 4-to-5-week-old male Wistar rats (Crl:Wl; Charles River Laboratories, Barcelona, Spain). The animals were under a standard 12 h light-dark cycle in a room with temperature and humidity control. All the rats were provided with water and commercially available rat standard pellet diet (STD) (3.02 kcal/g with 30 kcal % protein, 55 kcal % carbohydrates and 15 kcal % fat) ad libitum. […]
# [2] = tested on: AMP-activated Protein Kinase (AMPK); experiment: Hippocampal AMPK (western blot) after 10 days of oral drinking; assay type: in vivo, Wistar rats; details: oral by drinking 100 mg/Kg for 10 days, hippocampus, FIG. 10
# Method: (§1) Animal experimental procedures were carried out in accordance with the European Communities directive 2010/63/EU and Spanish legislation (Real Decreto 53/2013). The protocol was approved by the Research and approved by Ethics Committee for Animal Experiments of the University of Malaga, Spain. In accordance with the ARRIVE guidelines, all efforts were made to minimize animal suffering and to reduce the number of animals used per experimental group. Chronic drinking experiments on Wistar rats were performed on 20 male rats. All adult rats, ageing 2 months (≈300 g of body weight), were provided by Charles River Laboratories (Barcelona, Spain). The animals were housed individually under a standard 12 h light-dark cycle in a room with temperature and humidity control. Water and rat chow pellets were provided ad libitum throughout the course of the present study. […]
# (§2) Western Blot Analysis. […] Bands were quantified by densitometric analysis using ImageJ software (Rasband, WS, ImageJ, US National Institutes of Health, Bethesda, Md., USA). […] The results were expressed as the protein/α-Adaptin ratio or phosphorylated/total protein ratio and normalized to the control group (Y axis represents ‘fold mean of the control values’).
# (§3) All data are expressed as mean±SEM. […]
# [3] = tested on: Mitogen-activated Protein Kinase (MAPK/ERK1/2); experiment: Hippocampal MAPK/ERK1/2 (western blot) after 10 days of oral drinking; assay type: in vivo, Wistar rats; details: oral by drinking 100 mg/Kg for 10 days, hippocampus, FIG. 10
# Method: as §1, §2, §3
# tau protein = experiment: Hippocampal tau phosphorylation and total tau (western blot) after 10 days of oral drinking; assay type: in vivo, Wistar rats; details: oral by drinking 100 mg/Kg for 10 days, hippocampus
# Method: Animal experimental procedures were carried out in accordance with the European Communities directive 2010/63/EU and Spanish legislation (Real Decreto 53/2013). The protocol was approved by the Research and approved by Ethics Committee for Animal Experiments of the University of Malaga, Spain. In accordance with the ARRIVE guidelines, all efforts were made to minimize animal suffering and to reduce the number of animals used per experimental group. Chronic drinking experiments on Wistar rats were performed on 20 male rats. All adult rats, ageing 2 months (≈300 g of body weight), were provided by Charles River Laboratories (Barcelona, Spain). The animals were housed individually under a standard 12 h light-dark cycle in a room with temperature and humidity control. Water and rat chow pellets were provided ad libitum throughout the course of the present study.
# Caromax®-D-Pinitol (3-O-methyl-d-chiro-inositol, DPIN, 98% purity) and Caromax®-D-Chiro-inositol (cis-1,2,3-trans-3,5,6-cyclohexanehexol, DCI) were provided by Euronutra SL (Málaga, Spain). They were dissolved in water to orally daily administration by drinking and/or gavage at dose of 100 mg/Kg of body weight (BW) in a 1 ml/kg of BW volume to Zucker and Wistar rats for 4 weeks (28 days) and 10 days, respectively (FIG. 1). During the drinking treatments, the concentration of inositols in the water were updated considering the daily increase of BW of the rats and the possible loss of water by evaporation.
# Brain extract. Frozen brain samples (17 mg per sample) were homogenized in 1 mL of cold RIPA lysis buffer (50 mM Tris-HCl pH 7.4, 150 mM NaCl, 0.5% NaDOC, 1 mM EDTA, 1% Triton, 0.1% SDS, 1 mM Na3VO4, 1 mM NaF) supplemented with a protease cocktail (Hoffmann-Roche). The suspension was incubated for 2 hours at 4° C., followed by centrifugation at 12,000 rpm for 15 minutes at 4° C. The supernatant was transferred to a new clean centrifuge tube, and Bradford colorimetric method was used to determine the concentration of the total protein. The protein extracts were diluted 1:1 in loading buffer (DTT 2X) and heated for 5 minutes at 99° C. before being subjected to electrophoresis.
# as §2, with “Analysis. The tissue protein (10-15 μg) was subjected to electrophoresis on 4-12% Criterion XT Precast Bis-Tris gels (Bio-Rad, USA) for 30 minutes at 80V and 2 h at 150V.” for “Analysis.”
# as §3
compound,measurement,setting,value
"COC1[C@@H](O)[C@@H](O)C(O)[C@H](O)[C@H]1O (stereo partly drawn) [DPIN, (1S,2S,4S,5R)-6-methoxycyclohexane-1,2,3,4,5-pentol]",glucose levels in plasma,[1],maintenance
same,kinase activation and total expression of AMPK,[2],No other changes
same,kinase activation and total expression of MAPK/ERK1/2,[3],No other changes
same,"quantity of phospho-tau (AT8: Ser202, Thr205) compared with vehicle group",tau protein; FIG. 7A.1,dropped to more than half
same,relative protein levels of total tau compared with vehicle group,tau protein; FIG. 7A.2,rise
